Results from US20080269293A1, “PYRAZOLE DERIVATIVES AS ANTI-PLATELET AND ANTI-THROMBOTIC AGENTS” (Pfizer Inc., priority 2006, published 2008).

Target: T1, platelet P2Y1 receptor (Homo sapiens, UniProt P47900)
T1 construct: expressed in transfected cells
Assay: P2Y1 receptor binding assay ([β-33P]-2-thiomethyl ADP)
Conditions: binding of 0.3 nM [β-33P]-2-thiomethyl ADP, hP2Y1 expressing 132N1 cell membrane, 25° C., 60 minutes
Protocol: Conducting P2Y, Receptor Binding Assay
[β−^33P]-2-thiomethyl ADP (2100 Ci/mmol) was purchased from PerkinElmer, Protease Inhibitors Complete, EDTA-free, was purchased from Roche, and ADP (Adenosine diphosphate), MRS2179, and 2-thiomethy ADP (2-Me-S-ADP) were purchased from Sigma Chemical Co.
Binding of 0.3 nM [β-^33P]-2-thiomethyl ADP to platelet P2Y1 receptor in 132N1 cell membrane was carried out in triplicate at 25° C. with 96 well plate (Corning, 3365). Nonspecific binding was defined as binding in the presence of 1 μM of 2-Me-S-ADP. One […] of dimethyl sulfoxide (DMSO) or 1 μL of DMSO (Sigma-Aldrich, 472301) containing a test compound diluted to final assay concentrations of 0.1 nM to 1 mM were placed into each well of a Corning 96-well plate. A volume of 60 μL of buffer: 50 mM Tris pH 7.5 (Sigma, T-2194), 1 mM EDTA (Gibco, 15575-038) and 100 mM NaCl (Gibco, 200740-011) containing 0.3 nM [β-^33P]-2-thiomethyl ADP 40 μL of hP2Y1 expressing 132N1 cell membrane prep was added to each well. After incubation on shaker for 60 minutes, The contents of the wells are filtered and washed 8 times with Tomtec Cell Harvester through UniFilter 96, GF/B plates (PerkinElmer, 6005177) Forty five microliters […] Scintillation cocktail (Ultima-Flo-M) was added into each well and plates counted on a Trilux Microbeta Counter.
• 1. Add 1 μL DMSO or compounds into the wells according to the protocol. • 2. Add 60 μL incubation buffer with [β-^33P]-2-thiomethyl ADP into each well. • 3. Add 40 μL hP2Y1 expressing 132N1 cell membrance prep. Incubate 60 minutes on top of the shaker (IKA Shutter MTS4). • 4. Filter and wash 8× with Tomtec Cell Harvester through UniFilter GF/B plates (PerkinElmer, 6005177). • 5. Add 45 μL scintillation cocktail into each well and plates counted on a Trilux Microbeta Counter.

T1 sequence (P47900 whole entry): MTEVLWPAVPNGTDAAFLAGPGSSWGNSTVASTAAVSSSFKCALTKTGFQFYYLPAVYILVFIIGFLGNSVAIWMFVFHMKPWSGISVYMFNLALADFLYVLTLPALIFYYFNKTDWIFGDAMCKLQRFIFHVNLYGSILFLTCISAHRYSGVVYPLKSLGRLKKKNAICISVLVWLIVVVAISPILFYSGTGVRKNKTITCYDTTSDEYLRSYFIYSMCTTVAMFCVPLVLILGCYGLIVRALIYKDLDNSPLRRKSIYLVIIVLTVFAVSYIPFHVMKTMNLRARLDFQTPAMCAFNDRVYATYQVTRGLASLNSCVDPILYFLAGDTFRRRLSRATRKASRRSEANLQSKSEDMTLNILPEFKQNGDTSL

Compound	IC50 [nM]
CC(C)(C)c1ccc(NC(=O)Nc2ccccc2Oc2cc(C(=O)O)nn2-c2ccccc2)cc1 [Example 27, 5-{2-[3-(4-tert-Butyl-phenyl)-ureido]-phenoxy}-1-phenyl-1H-pyrazole-3-carboxylic acid]	7220
Cc1cc(Oc2ccccc2NC(=O)Nc2ccc(OC(F)(F)F)cc2)n(-c2ccc(Cl)cc2)n1 [Example 13]	246
O=C(Nc1ccc(OC(F)(F)F)cc1)Nc1ccccc1Oc1ccnn1-c1ccccc1 [Example 24, 1-[2-(2-Phenyl-2H-pyrazol-3-yloxy)-phenyl]-3-(4-trifluoromethoxy-phenyl)-urea]	306
Cc1cc(Oc2ccccc2NC(=O)Nc2ccc(OC(F)(F)F)cc2)n(-c2ccc(F)cc2)n1 [Example 15]	283
Cc1cc(Oc2ccccc2NC(=O)Nc2ccc(OC(F)(F)F)cc2)n(-c2cccc(F)c2)n1 [Example 17]	307
1-Phenyl-5-{2-[3-(4-trifluoromethoxy-phenyl)-ureido]-phenoxy}-1H-pyrazole-3-carboxylic acid methyl ester [Example 26]	> 10000
Cc1cc(Oc2ccccc2NC(=O)Nc2ccc(OC(F)(F)F)cc2)n(-c2ccccc2C(F)(F)F)n1 [Example 8]	128
Cc1cc(Oc2ccccc2NC(=O)Nc2ccc(OC(F)(F)F)cc2)n(-c2ccccc2Cl)n1 [Example 2, 1-{2-[2-(2-Chloro-phenyl)-5-methyl-2H-pyrazol-3-yloxy]-phenyl}-3-(4-trifluoromethoxy-phenyl)-urea]	89
Cc1cc(Oc2ccccc2NC(=O)Nc2ccc(OC(F)(F)F)cc2)n(-c2ccccc2F)n1 [Example 9]	253

Now from value to compound:

IC50 [nM]	Compound
> 10000	Cc1cc(Oc2ccccc2NC(=O)Nc2ccc(C(C)(C)C(=O)O)cc2)n(-c2ccccc2Cl)n1 [Example 84, 2-[4-(3-{2-[2-(2-Chloro-phenyl)-5-methyl-2H-pyrazol-3-yloxy]-phenyl}-ureido)-phenyl]-2-methyl-propionic acid]
> 10000	CC(=O)N1CCC(c2ccc(NC(=O)Nc3ccccc3Oc3cc(C)nn3-c3ccccc3Cl)cc2)CC1 [Example 121, 1-(4-(1-acetylpiperidin-4-yl)phenyl)-3-(2-(1-(2-chlorophenyl)-3-methyl-1H-pyrazol-5-yloxy)phenyl)urea]
5060	CCOc1ccc(NC(=O)Nc2ccccc2Oc2cc(C)nn2-c2ccccc2)cc1 [Example 41]
7560	Cc1cc(C)cc(NC(=O)Nc2ccccc2Oc2cc(C)nn2-c2ccccc2)c1 [Example 43]
> 10000	Cc1cc(Oc2ccccc2NC(=O)Nc2c(Cl)cccc2Cl)n(-c2ccccc2)n1 [Example 61]
> 10000	Cc1cc(Oc2ccccc2NC(=O)Nc2ccc(C(C)(C)CO)cc2)n(-c2ccccc2Cl)n1 [Example 85, 1-{2-[2-(2-Chloro-phenyl)-5-methyl-2H-pyrazol-3-yloxy]-phenyl}-3-[4-(2-hydroxy-1,1-dimethyl-ethyl)-phenyl]-urea]
182	Cc1cc(Oc2ccccc2NC(=O)Nc2ccc(OC(F)(F)F)cc2)n(-c2ccccc2Br)n1 [Example 125, 1-(2-(1-(2-bromophenyl)-3-methyl-1H-pyrazol-5-yloxy)phenyl)-3-(4-(trifluoromethoxy)phenyl)urea]
5060	COC(=O)c1ccc(NC(=O)Nc2ccccc2Oc2cc(C)nn2-c2ccccc2Cl)cc1 [Example 86, 4-(3-{2-[2-(2-Chloro-phenyl)-5-methyl-2H-pyrazol-3-yloxy]-phenyl}-ureido)-benzoic acid methyl ester]
12	CCc1ccccc1-n1nc(C)cc1Oc1ccccc1NC(=O)Nc1ccc(C2CCCCC2)cc1 [Example 108, 1-(4-cyclohexylphenyl)-3-(2-(1-(2-ethylphenyl)-3-methyl-1H-pyrazol-5-yloxy)phenyl)urea]
1120	COC(C)c1ccc(NC(=O)Nc2ccccc2Oc2cc(C)nn2-c2ccccc2Cl)cc1 (stereo not shown) [Example 116, 1-(2-(1-(2-chlorophenyl)-3-methyl-1H-pyrazol-5-yloxy)phenyl)-3-(4-(1-methoxyethyl)phenyl)urea]
